Measured values reported in PubChem BioAssay (NCI).
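Cultured in 96-well plates, cells were exposed to test compound for 48 hours across five concentrations. Abbreviation: GI50, concentration required for 50% inhibition of growth. TGI: concentration producing complete growth inhibition.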

Assays:
Assay in all cases: DTP human tumour cell line panel, 48 h
[1] = test system: U251 CNS
[2] = test system: SF-295 CNS
[3] = test system: BT-549 breast
[4] = test system: MALME-3M melanoma
[5] = test system: KM12 colon
[6] = test system: SR leukemia
[7] = test system: COLO 205 colon
[8] = test system: M14 melanoma
[9] = test system: OVCAR-4 ovarian
[10] = test system: SK-MEL-2 melanoma
[11] = test system: CCRF-CEM leukemia
[12] = test system: UO-31 renal
[13] = test system: HT29 colon
[14] = test system: SNB-75 CNS
[15] = test system: HS 578T breast
[16] = test system: NCI-H522 lung
[17] = test system: RXF 393 renal
[18] = test system: IGROV1 ovarian
[19] = test system: TK-10 renal
[20] = test system: UACC-62 melanoma
[21] = test system: PC-3 prostate
[22] = test system: LOX IMVI melanoma
[23] = test system: SF-539 CNS
[24] = test system: SK-OV-3 ovarian
[25] = test system: NCI-H226 lung
[26] = test system: EKVX NSCLC
[27] = test system: NCI-H460 lung
[28] = test system: CAKI-1 renal
[29] = test system: SK-MEL-5 melanoma
[30] = test system: UACC-257 melanoma
[31] = test system: HCT-15 colon
[32] = test system: T-47D breast
[33] = test system: SNB-19 CNS
[34] = test system: HOP-62 NSCLC
[35] = test system: HCT-116 colon
[36] = test system: SN12C renal
[37] = test system: MDA-MB-435
[38] = test system: A498 renal
[39] = test system: DU-145 prostate
[40] = test system: RPMI-8226 leukemia
[41] = test system: SK-MEL-28 melanoma
[42] = test system: ACHN renal
[43] = test system: SW-620 colon
[44] = test system: MCF7 breast
[45] = test system: OVCAR-8 ovarian
[46] = test system: OVCAR-5 ovarian
[47] = test system: MDA-MB-231 breast
[48] = test system: HCC-2998 colon
[49] = test system: SF-268 CNS
[50] = test system: MOLT-4 leukemia
[51] = test system: NCI/ADR-RES ovarian
[52] = test system: 786-0 renal
[53] = test system: A549 NSCLC
[54] = test system: HL-60(TB) leukemia
[55] = test system: HOP-92 NSCLC
[56] = test system: OVCAR-3 ovarian

With CCCCCCNC(=O)Oc1ccc(/C(=C(/C)c2ccc(OC)cc2)c2ccc(OCCN3CCCCCC3)cc2)cc1 the GI50 [1] was 1720 nM, the TGI [1] was 3330 nM and the GI50 [2] was 1760 nM. The TGI [2] was 3360 nM, the GI50 [3] was 2660 nM and the TGI [3] was 7940 nM. The GI50 [4] was 1770 nM, the TGI [4] was 3440 nM and the GI50 [5] was 10900 nM. The TGI [5] was 24200 nM, the GI50 [6] was 1320 nM and the TGI [6] was 4600 nM. For the same compound, the GI50 [7] was 1880 nM, the TGI [7] was 3540 nM and the GI50 [8] was 1810 nM. It also gave a TGI [8] of 3560 nM, a GI50 [9] of 4600 nM and a TGI [9] of 18500 nM. The GI50 [10] was 2090 nM, the TGI [10] was 4790 nM and the GI50 [11] was 2620 nM. For the same compound, the TGI [11] was > 100000 nM, the GI50 [12] was 2140 nM and the TGI [12] was 6630 nM. The GI50 [13] was 1710 nM, the TGI [13] was 4090 nM and the GI50 [14] was 5790 nM. It also gave a TGI [14] of 22100 nM, a GI50 [15] of 2750 nM and a TGI [15] of 12300 nM. It also gave a GI50 [16] of 4120 nM, a TGI [16] of 16200 nM and a GI50 [17] of 1800 nM. It also gave a TGI [17] of 3850 nM, a GI50 [18] of 3660 nM and a TGI [18] of 13600 nM. For the same compound, the GI50 [19] was 17000 nM, the TGI [19] was 31300 nM and the GI50 [20] was 2210 nM. For the same compound, the TGI [20] was 4970 nM, the GI50 [21] was 3050 nM and the TGI [21] was 11400 nM. The GI50 [22] was 1450 nM, the TGI [22] was 2760 nM and the GI50 [23] was 1670 nM. For the same compound, the TGI [23] was 3100 nM, the GI50 [24] was 7570 nM and the TGI [24] was 21200 nM. For the same compound, the GI50 [25] was 10300 nM, the TGI [25] was 23600 nM and the GI50 [26] was 5150 nM. For the same compound, the TGI [26] was 19200 nM, the GI50 [27] was 1900 nM and the TGI [27] was 3520 nM. The GI50 [28] was 3840 nM, the TGI [28] was 15000 nM and the GI50 [29] was 1690 nM. It also gave a TGI [29] of 3120 nM, a GI50 [30] of 2100 nM and a TGI [30] of 5050 nM. It also gave a GI50 [31] of 1480 nM, a TGI [31] of 3150 nM and a GI50 [32] of 1390 nM. For the same compound, the TGI [32] was 4010 nM, the GI50 [33] was 7290 nM and the TGI [33] was 32100 nM. For the same compound, the GI50 [34] was 6700 nM, the TGI [34] was 20700 nM and the GI50 [35] was 1520 nM. It also gave a TGI [35] of 2850 nM, a GI50 [36] of 1970 nM and a TGI [36] of 4770 nM. It also gave a GI50 [37] of 2110 nM, a TGI [37] of 4710 nM and a GI50 [38] of 7140 nM. It also gave a TGI [38] of 20200 nM, a GI50 [39] of 8290 nM and a TGI [39] of 23400 nM. It also gave a GI50 [40] of 2210 nM, a TGI [40] of 5470 nM and a GI50 [41] of 1860 nM. The TGI [41] was 3730 nM, the GI50 [42] was 3170 nM and the TGI [42] was 10400 nM. For the same compound, the GI50 [43] was 2010 nM, the TGI [43] was 4150 nM and the GI50 [44] was 377 nM. The TGI [44] was 2580 nM, the GI50 [45] was 1960 nM and the TGI [45] was 3990 nM. It also gave a GI50 [46] of 7030 nM, a TGI [46] of 20500 nM and a GI50 [47] of 1890 nM. For the same compound, the TGI [47] was 3760 nM, the GI50 [48] was 2090 nM and the TGI [48] was 4710 nM. It also gave a GI50 [49] of 7360 nM, a TGI [49] of 24000 nM and a GI50 [50] of 2380 nM. For the same compound, the TGI [50] was 7450 nM, the GI50 [51] was 2910 nM and the TGI [51] was 11200 nM. It also gave a GI50 [52] of 1680 nM, a TGI [52] of 3100 nM and a GI50 [53] of 3560 nM. The TGI [53] was 14400 nM, the GI50 [54] was 988 nM and the TGI [54] was 3470 nM. It also gave a GI50 [55] of 2000 nM and a TGI [55] of 6960 nM.
Cc1cc(O)c(=O)cc2c1C[C@H]1CC(C)(C)/C=C/C[C@]3(C)Oc4cc(=O)c(O)cc(C)c4C[C@H]3C[C@H](O)[C@@]1(C)O2 was tested, and the GI50 [3] was 12.5 nM, the TGI [3] was > 16700 nM and the GI50 [4] was 6.36 nM. For the same compound, the TGI [4] was 32 nM, the GI50 [5] was 7.17 nM and the TGI [5] was > 16700 nM. The GI50 [6] was 14.9 nM, the TGI [6] was > 16700 nM and the GI50 [7] was 5.71 nM. The TGI [7] was 25.8 nM, the GI50 [8] was 11.7 nM and the TGI [8] was 140 nM. For the same compound, the GI50 [9] was 12 nM, the TGI [9] was > 16700 nM and the GI50 [10] was 8.83 nM. For the same compound, the TGI [10] was 496 nM, the GI50 [11] was 10.1 nM and the TGI [11] was > 16700 nM. It also gave a GI50 [12] of 7.73 nM, a TGI [12] of 53.2 nM and a GI50 [56] of 12 nM. For the same compound, the TGI [56] was > 16700 nM, the GI50 [13] was 3.1 nM and the TGI [13] was > 16700 nM. It also gave a GI50 [16] of 7.68 nM, a TGI [16] of 51.7 nM and a GI50 [17] of 10.5 nM. For the same compound, the TGI [17] was 142 nM, the GI50 [18] was 16.3 nM and the TGI [18] was > 16700 nM. For the same compound, the GI50 [19] was 8.98 nM, the GI50 [20] was 27.2 nM and the TGI [20] was 85.4 nM. The GI50 [21] was 5.38 nM, the TGI [21] was > 16700 nM and the GI50 [23] was 10.4 nM. The TGI [23] was 71.4 nM, the GI50 [24] was 10.1 nM and the TGI [24] was 95.2 nM. For the same compound, the GI50 [25] was 24 nM, the GI50 [26] was 11 nM and the GI50 [27] was < 1.67 nM. The TGI [27] was 17.3 nM, the GI50 [30] was 13.5 nM and the TGI [30] was 84.1 nM. For the same compound, the GI50 [31] was 2.81 nM, the TGI [31] was > 16700 nM and the GI50 [32] was 2.52 nM. For the same compound, the TGI [32] was 16.3 nM, the GI50 [33] was < 1.67 nM and the TGI [33] was > 16700 nM. For the same compound, the GI50 [34] was 5.72 nM, the TGI [34] was 40.1 nM and the GI50 [35] was < 1.67 nM. For the same compound, the TGI [35] was > 16700 nM, the GI50 [36] was 5.11 nM and the TGI [36] was > 4910 nM. For the same compound, the GI50 [38] was 25.9 nM, the TGI [38] was 80.9 nM and the GI50 [39] was 5.61 nM. The TGI [39] was > 16700 nM, the GI50 [40] was 8.31 nM and the TGI [40] was > 16700 nM. For the same compound, the GI50 [41] was 15.6 nM, the TGI [41] was > 16700 nM and the GI50 [42] was 6.01 nM. The TGI [42] was 50.4 nM, the GI50 [43] was 2.91 nM and the TGI [43] was > 16700 nM. The GI50 [44] was 3.81 nM, the TGI [44] was > 16700 nM and the GI50 [45] was 6.1 nM. The TGI [45] was > 16700 nM, the GI50 [46] was 13.6 nM and the TGI [46] was > 16700 nM. For the same compound, the GI50 [47] was 19.9 nM, the TGI [47] was > 16700 nM and the GI50 [48] was 20.3 nM. For the same compound, the TGI [48] was > 16700 nM, the GI50 [49] was 7.71 nM and the TGI [49] was > 16700 nM. The GI50 [50] was 7.93 nM, the TGI [50] was > 16700 nM and the GI50 [51] was 8.45 nM. The GI50 [53] was 6.97 nM, the TGI [53] was > 16700 nM and the GI50 [54] was 20.2 nM. For the same compound, the TGI [54] was 128 nM, the GI50 [55] was 5.54 nM and the TGI [55] was 112 nM.
